Test results from PMC8748766, “The catalytic activity of TCPTP is auto-regulated by its intrinsically disordered tail and activated by Integrin alpha-1” (Nature Communications, 2022).

Experiments:
TCPTP [1] = biological target: T1, TCPTP (Homo sapiens, UniProt P17706); assay: Effect of ITGA1, ITGA10 & ITGA11 peptide on TCPTP activity, pEGFR peptide-2; format: biochemical; settings: pEGFR peptide-2 substrate, n = 9
T1 construct: fragments of TCPTP (residues: 1–387); His6 (N, cleaved yes); made in house; host or cells: E. coli BL21 (DE3) RIL
T1 sequence (P17706 1-387 isoform P17706-2): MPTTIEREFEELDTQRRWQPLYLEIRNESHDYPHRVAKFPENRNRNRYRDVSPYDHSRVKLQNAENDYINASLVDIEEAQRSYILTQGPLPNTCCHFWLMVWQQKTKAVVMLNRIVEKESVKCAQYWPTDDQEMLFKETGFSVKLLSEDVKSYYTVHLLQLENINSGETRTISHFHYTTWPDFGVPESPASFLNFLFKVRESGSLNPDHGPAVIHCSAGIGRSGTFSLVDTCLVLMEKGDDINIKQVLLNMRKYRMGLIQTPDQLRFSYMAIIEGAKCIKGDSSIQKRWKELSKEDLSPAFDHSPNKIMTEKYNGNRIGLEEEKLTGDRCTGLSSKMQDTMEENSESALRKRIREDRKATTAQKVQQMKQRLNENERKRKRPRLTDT
Text: (§1) Polymerase chain reaction (PCR) fragments of TCPTP (residues: 1–387) TCPTPCAT (catalytic domain, residues: 1–288, 1–302 or 1–314), TCPTPTail (C-terminal tail, residues: 289–387 or 303–387) were amplified from full-length human TCPTP (TC45 isoform). TCPTP, TCPTPCAT (residues: 1–288, 1–314), and TCPTPTail (residues: 289–387) fragments were cloned into pMCSG7 including a N-terminal His6-tag using ligation-independent cloning. For all NMR experiments, the PCR fragments of TCPTP, TCPTPCAT (residues: 1–302) and TCPTPTail (residue: 303–387) were sub-cloned into pRP1B as previously described.
Relative activity of TCPTP and its variant mutant construct were measured by adding 1 nM of enzymes against the fixed concentration of substrate (100 μM of phosphopeptides), the reaction was incubated at 30 °C for 30 min in assay buffer before getting stopped as described above. […]
Supplementary Figure 8: TCPTP is distinctively activated by Integrin cytoplasmic tail with positive charge residue clusters. a Sequence alignment of the cytoplasmic tail for the human Integrin family. Positive charge residues are highlighted in blue, while negative charge residues are red; a black box highlights large clusters of positive charge residue. b Effect of ITGA1, ITGA10 & ITGA11 on the catalytic activity of TCPTP, measured against pEGFR peptide-2, derived from the EGFR’s kinase domain activation loop. […]

TCPTP [2] = biological target: T1, TCPTP; assay: Kinetics of TCPTP with saturating ITGA1 peptide, pEGFR peptide-1 substrate; format: biochemical; settings: TCPTP saturated with ITGA1 peptide (ITGA1_TR 1 μM; ITGA1_FCT 25 μM), mean ± SE, n = 9
Text: as §1
(§2) The rate of dephosphorylation of TCPTP and TCPTPCAT (residue 1–314) against 2 phosphotyrosine peptides derived from EGFR was monitored either with or without ITGA1 peptide (ITGA1_FCT & ITGA1_TR) in assay buffer (25 mM Hepes pH 7.4, 50 mM NaCl and 1 mM DTT). Lyophilized powder of all synthetic peptides was dissolved in assay buffer without DTT (phosphopeptides, 5 mM; ITGA1 peptides, 2 mM). For the kinetic analysis, the concentration of the enzyme was fixed at 1 nM while the substrate (phosphopeptides) concentration was varied from 2.5 μM to 160 μM in a total reaction volume of 200 μl. Effect of ITGA1 peptide on TCPTP & TCPTPCAT kinetics were assessed in saturated condition by adding an excess amount of ITGA1 peptide to the reaction mixture (ITGA1_TR = 1 μM; ITGA1_FCT = 25 μM). The reaction was incubated at 30 °C for 30 min and stopped by the addition of 30 μl phosphate reagent (phosphate colorimetric assay kit; Bio Vision) following the manufacturer’s instructions. Data were normalized and fitted using a nonlinear curve, and kinetics parameters (KM and kcat) were calculated from the Michaelis-Menten equation using Graph Pad Prism 9.0. All data points in the enzyme kinetics experiment were measured in triplicate, and the experiments were repeated three times.

TCPTP [3] = biological target: T1, TCPTP; assay: Kinetics of TCPTP with saturating ITGA1 peptide, pEGFR peptide-2 substrate; format: biochemical; settings: TCPTP saturated with ITGA1 peptide (ITGA1_TR 1 μM; ITGA1_FCT 25 μM), mean ± SE, n = 9
Text: as §1, §2

TCPTPCAT = biological target: T2, TCPTPCAT (Homo sapiens, UniProt P17706); assay: NMR titration (2D HSQC/TROSY) binding to TCPTPCAT; settings: 2D [1H,15N] TROSY, unlabeled ligand added
T2 construct: TCPTP and TCPTPCAT (residue 1–314) against 2 phosphotyrosine peptides derived from EGFR; His6 (N, cleaved yes); made in house; host or cells: E. coli BL21 (DE3) RIL
T2 sequence (P17706 1-314 isoform P17706-2): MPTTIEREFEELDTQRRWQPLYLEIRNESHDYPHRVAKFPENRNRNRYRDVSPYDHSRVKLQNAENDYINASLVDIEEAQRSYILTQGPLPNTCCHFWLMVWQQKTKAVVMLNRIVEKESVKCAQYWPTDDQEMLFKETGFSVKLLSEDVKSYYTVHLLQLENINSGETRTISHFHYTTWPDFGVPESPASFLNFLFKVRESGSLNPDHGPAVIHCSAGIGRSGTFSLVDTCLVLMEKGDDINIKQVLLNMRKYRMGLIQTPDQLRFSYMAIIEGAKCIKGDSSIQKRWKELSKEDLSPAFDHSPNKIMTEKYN
Text: as §1
NMR data were collected on either Bruker NEO 600 MHz or 800 MHz spectrometers equipped with TCI HCN z-gradient cryoprobes at 298 K or 283 K. NMR measurements of TCPTP’s variant construct were recorded using (^1H,^15N)-, (^2H,^15N)-, (^1H,^15N,^13C), or (^2H,^15N,^13C)-labeled protein at a final concentration of 0.6 mM for backbone assignment or 0.1 mM for titration in NMR buffer and 90% H2O/10% D2O. The sequence-specific backbone assignments of TCPTP (residues 1–387), TCPTPCAT (residues 1–302), TCPTPTail (residues 303–387) and other variants were achieved using 3D triple resonance experiments including […], 3D HNCA, 3D HN(CO)CA, 3D HN(CO)CACB, and 3D HNCACB either as HSQC or TROSY variations. All NMR data were processed using TopSpin 4.0.5[44] and analyzed using either CARA (http://www.cara.nmr.ch) and/or CcpNMR[45].

TCPTP [4] = biological target: T1, TCPTP; assay: EC50 assay: TCPTP activation by ITGA1 peptides (pEGFR peptide-1 dephosphorylation); format: biochemical; settings: 1 nM TCPTP, 50 μM pEGFR peptide-1, n = 3
Text: as §1
To determine the EC50, synthesized ITGA1 peptides (ITGA1_FCT, ITGA1_TCT and ITGA1_TR) were mixed with TCPTP, and phosphatase activity was measured using the phospho-EGFR peptides (pEGFR peptide-1) as substrate. Lyophilized powder of all peptides was dissolved in 25 mM Hepes pH 7.4, 50 mM NaCl. For the assay, the TCPTP concentration was fixed at 1 nM and substrate phospho-peptide at 50 μM. […] The absorbance of the reaction mixture was measured at 650 nm, which was converted to the amount of phosphate produced in reaction based on the standard curve generated from the known phosphate concentration. Data obtained from the reaction was fitted using nonlinear regression mode and EC50 values were calculated based on the equation function “Log(agonist) vs. response-variable slope” using Graph Pad Prism 9.0.

[5] = DiFMUP assay of TCPTP, TCPTPCAT, PTP1B and PTP1BCAT; format: biochemical; settings: 10 μM DiFMUP, 2.5 nM protein, pH 7.4, 25 min, fluorescence 455 nm; n = 9
Method: Activity of TCPTP, TCPTPCAT (residue 1–314) either with or without ITGA1 peptides (ITGA1_TR; 1:50 molar ratio, ITGA1_FCT; 1:1000 molar ratio), PTP1B (residue 1–400) and PTP1BCAT (residue 1–321) were assessed in assay buffer (25 mM Hepes pH 7.4, 50 mM NaCl, and 1 mM DTT). The assay was performed in black polystyrene flat bottom 96-well plate. The concentration of DiFMUP was fixed at 10 μM and protein concentration at 2.5 nM in total reaction volume of 100 μl. The emitted fluorescent signal at 455 nm was continuously recorded for 25 min using a Tecan Infinite M1000 pro microplate reader (Tecan i-control, 2.0.10.0).

[6] = tested on: pEGFR peptide-1, derived from the cytoplasmic tail of EGFR; assay: Phosphatase kinetic analysis (Michaelis-Menten) of TCPTP constructs, pEGFR peptide-1 substrate; format: biochemical
Method: as §2

[7] = tested on: pEGFR peptide-2, derived from the EGFR's kinase domain activation loop; assay: Phosphatase kinetic analysis (Michaelis-Menten) of TCPTP constructs, pEGFR peptide-2 substrate; format: biochemical
Method: as §2
Supplementary Table 2: Enzymatic activity assay (Michaelis-Menten analysis); substrate pEGFR peptide-2, derived from the EGFR’s kinase domain activation loop. Calculated kinetic parameter are presented as the mean of nine independent reactions (n=9; mean ± SE). Source data are provided as a Source Data file. kcat (s-1) Km (µM) kcat/Km (µM -1s-1)

[8] = pEGFR peptide-2 2.5-160 μM, 1 nM enzyme, pH 7.4, 30 °C 30 min, mean ± SE, n = 9

KLGFFAHKKIPEEEKREEKLEQ [ITGA10]
TCPTP activation (TCPTP [1]): fails to do so

KLGFFRSARRRREPGLDPTPKVLE [ITGA11]
TCPTP activation (TCPTP [1]): efficiently activates TCPTP

KIGFFKRPLKKKMEK [ITGA1_FCT, ITGA1 full cytoplasmic tail: …]
kcat (TCPTP [2]; pEGFR peptide-1, 1 nM enzyme, pH 7.4, 30 °C 30 min): 26.6 ± 0.8 s⁻¹
Km (TCPTP [2]; pEGFR peptide-1, pH 7.4, 30 °C): 20.2 ± 1.9 µM
kcat/Km (TCPTP [2]; pEGFR peptide-1): 1.3e+06 ± 100000 M⁻¹ s⁻¹
kcat (TCPTP [3]; pEGFR peptide-2, pH 7.4, 30 °C 30 min): 30.2 ± 1.2 s⁻¹
Km (TCPTP [3]; pEGFR peptide-2): 32.8 ± 3.7 µM
kcat/Km (TCPTP [3]; pEGFR peptide-2): 0.9 ± 0.1 µM -1s-1
NMR titration: CSPs in (2H,15N)-labeled TCPTPCAT (TCPTPCAT): significant CSPs in the same residues
activation relative to ITGA1_TCT (TCPTP [4]): functions better than ITGA1_TCT

B1: TCPTP: T-Cell Protein Tyrosine Phosphatase, TC45 isoform, full-length residues 1–387 (protein)
chain: T1 sequence (P17706 1-387 isoform P17706-2)
modifications: left off: His6, N-terminal, cleaved
DiFMUP dephosphorylation, times slower than with TCPTPCAT [5]: ~ 3 times
kcat ([6]; pEGFR peptide-1 2.5-160 μM, 1 nM enzyme, 25 mM Hepes pH 7.4, 50 mM NaCl, 1 mM DTT, 30 °C 30 min, mean ± SE, n = 9 (TCPTPCAT, TCPTP) or 12 (TCPTPC-term, TCPTPL1)): 12.2 ± 0.2 s⁻¹
Km ([6]; pEGFR peptide-1 2.5-160 μM, 1 nM enzyme, pH 7.4, 30 °C 30 min, mean ± SE, n = 9 (TCPTPCAT, TCPTP) or 12 (TCPTPC-term, TCPTPL1)): 12.4 ± 0.6 µM
kcat/Km ([6]; pEGFR peptide-1, pH 7.4, 30 °C, mean ± SE, n = 9 (TCPTPCAT, TCPTP) or 12 (TCPTPC-term, TCPTPL1)): 1e+06 ± 100000 M⁻¹ s⁻¹
rate of dephosphorylation, fold slower than TCPTPCAT ([6]; pEGFR peptide-1, vs TCPTPCAT): ~ 3 fold
Km [7, 8]: 21.2 ± 2.6 µM
kcat [7, 8]: 13.8 ± 0.5 s⁻¹
kcat/Km ([7]; pEGFR peptide-2, mean ± SE, n = 9): 0.6 ± 0.1 µM -1s-1
rate of dephosphorylation, fold slower than TCPTPCAT ([7]; pEGFR peptide-2, vs TCPTPCAT): ~ 3 fold
